The subject of assay [1] is lamin A cleavage by caspase-6 in SK-N-AS cells. The assay can be described thus: Lamin cleavage assay (in-cell western after staurosporine induction). Format: cell-based. Conditions: Homo sapiens, 1 h compound then 10 μM staurosporine.
Experimental: This assay measured lamin A cleavage under staurosporine-induced caspase activation; while staurosporine activates all executioner caspases, lamin A cleavage monitors only the activity of C6. After 1 h of preincubation with the compound and 3 h of incubation with staurosporine, lamin A cleavage was measured by in-cell western.
Inhibition of lamin A cleavage in SK-N-AS cells after staurosporine induction of caspases. Cells were treated with the indicated compound for 1 h before the addition of 10 μM staurosporine for 4 h. Error bars indicate the standard deviation from n = 4 replicate samples.
serves as a useful target-engagement assay in cells. We used the procedure of Mintz, et al, with the following modifications: SK-N-AS cells were seeded at 10,000 cells/well in black clear bottom 384-
well plates coated with poly-D-lysine and allowed to adhere overnight. Wells were treated with
varying doses of casapase-6 inhibitor, from 5 µM – 0.1 nM in 2-fold dilutions. After one hour, cells
were treated with 10 µM staurosporine to induce apoptosis and activation of multiple caspases. 3
hours after staurosporine addition, cells were fixed and permeabilized before in-cell westerns were
performed, as described.9
The target of a further assay is T1, caspase-3 (C3) (Homo sapiens, UniProt P42574).
T1 sequence (P42574 29-175 limits assumed): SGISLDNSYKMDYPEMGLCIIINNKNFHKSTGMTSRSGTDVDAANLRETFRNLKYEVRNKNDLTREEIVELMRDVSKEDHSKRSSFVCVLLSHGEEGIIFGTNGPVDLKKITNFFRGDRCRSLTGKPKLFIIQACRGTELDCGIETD
The assay can be described thus: Caspase-3 biochemical activity assay with fluorogenic substrate. The conditions noted are these: read-out: Casp-3 IC50. From the text: Error bars represent the standard deviation of thre replicate measurements. […] Activity measured by the cleavage of aminofluorocoumarin-labeled peptides (see the Supporting Information for sequences). C = caspase.

The target in a further assay is T2, C6 small subunit (Homo sapiens, UniProt P55212).
T2 construct: 194-293-Leu-Glu-His6 (SS) from caspase-6 cDNA (Origene); Leu-Glu-His6 (C); made in house; host or cells: E. coli Rosetta 2 pLysS DE3
The assay can be described thus: Disulfide tethering assay (% labeling by LC/MS), small subunit. Format: binding.

For the next assay, the target named is T3, C6 large subunit (Homo sapiens, UniProt P55212).
T3 construct: Residues 30-179 (LS); made in house; host or cells: E. coli Rosetta 2 pLysS DE3
Briefly: Disulfide tethering assay (% labeling by LC/MS), large subunit. Format: binding.

Molecules are shown by their SMILES.

T3 sequence (P55212 30-179): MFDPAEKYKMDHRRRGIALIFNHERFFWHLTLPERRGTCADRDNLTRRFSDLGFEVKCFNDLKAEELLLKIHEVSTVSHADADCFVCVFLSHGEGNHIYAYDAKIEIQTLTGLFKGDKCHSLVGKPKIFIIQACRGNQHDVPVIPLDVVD
T3 sequence (P55212 194-293): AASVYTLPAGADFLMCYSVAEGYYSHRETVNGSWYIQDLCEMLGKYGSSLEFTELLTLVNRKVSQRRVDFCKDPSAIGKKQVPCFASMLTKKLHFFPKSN
T2 sequence (P55212 194-293): as above
T2 sequence (P55212 30-179): as the sequence (P55212 30-179) above

Broadly, the IC50 is the point on the concentration scale where inhibition reaches its midpoint. For the compound `C=CS(=O)(=O)N1CCC[C@@H](C(=O)Nc2ccc(OC(F)(F)F)cc2)C1` [2a], the results for the IC50 (in assay [1]; on caspase-3 (C3)) were 14.2 ± 2.4 µM and over 500 µM, respectively.
Take `O=C(NCCS)[C@H]1CCCN(C(=O)Cc2ccc(OC(F)(F)F)cc2)C1` [compound 1]: on C6 small subunit, the “C6 % labeling (MS) small subunit” value was determined as 76%. In addition, the “C6 % labeling (MS) large subunit” value on C6 large subunit came out at 2%.
For the compound `C=CS(=O)(=O)N1C[C@H](C(=O)Nc2ccc(OC(F)(F)F)cc2)C[C@@H](c2ccccc2)C1` (racemic) [(±)-3-t], the IC50 on caspase-3 (C3) is over 500 µM.
Take `C=CS(=O)(=O)N1C[C@H](C(=O)Nc2ccc(OC(F)(F)F)cc2)C[C@H](c2ccccc2)C1` (racemic) [(±)-3-c]: on caspase-3 (C3), the IC50 was over 500 µM.

Values taken from article PMC10176470, “Engaging a Non-catalytic Cysteine Residue Drives Potent and Selective Inhibition of Caspase-6” (Journal of the American Chemical Society, 2023).
